# According to patent US11510943B2, “Chemotherapeutic agent comprising combination of alexidine dihydrochloride and sodium pentaborate pentahydrate” (YEDITEPE UNIVERSITESI, priority 2018, dated 2022):
# Entries after “also recorded” stand apart in the source; their conditions may differ. Where a name gives a salt, the structure may show the parent alone.
# Key:
# [1] = Procedure: The sodium pentaborate pentahydrate compound was dissolved in the appropriate medium for the cell that was used and filtered to enable sterilization.
# [2] = test system: healthy cells (hTert-HPNE, HNPC, hFSSCs, HUVEC); experiment: toxicity analysis (MTS viability assay), healthy cells together; assay type: cell-based
# [3] = solubility in dimethylsulfoxide; assay type: physicochemical; settings: organic solvent or mixture
# Procedure: The chemotherapeutic agent of the present invention comprises a combination of alexidine dihydrochloride and sodium pentaborate pentahydrate and induces apoptosis on pancreatic cancer cells. Alexidine dihydrochloride is a compound having a molecular weight of 581.71 gram/mol and the chemical formula of C26H56N10 ·2HCl and it is dissolved in dimethylsulfoxide of 10 mg/ml or above.
# [4] = test system: healthy human pancreatic cell (hTert-HPNE); experiment: colorimetric tetrazolium salt (MTS) viability assay, hTert-HPNE; assay type: cell-based; settings: AD alone, 2.5 μM, 48 hours of incubation
# [5] = test system: pancreatic cancer cells (MIA PaCa-2, AsPc-1 and Psn-1); experiment: colorimetric tetrazolium salt (MTS) viability assay, pancreatic cancer cells together; settings: Pancreatic cancer cell, 48 h, read-out: viability of the pancreatic cancer cells
# Source text: (§1) This value is 10-20% more than the chemotherapeutic effect of alexidine dihydrochloride alone.
# [6] = test system: pancreatic cancer cell (AsPc-1); experiment: colorimetric tetrazolium salt (MTS) viability assay, AsPc-1
# Source text: as §1
# [7] = test system: pancreatic cancer cell (Psn-1); experiment: colorimetric tetrazolium salt (MTS) viability assay, Psn-1
# Source text: as §1
# [8] = test system: healthy intervertebral disc cell (HNPC); experiment: colorimetric tetrazolium salt (MTS) viability assay, HNPC; assay type: cell-based; settings: AD alone, 2.5 μM, 48 hours of incubation
# [9] = test system: pancreatic cancer cell (MIA PaCa-2); experiment: colorimetric tetrazolium salt (MTS) viability assay, MIA PaCa-2; settings: Homo sapiens, MIA PaCa-2, 48 h, read-out: viability of MIA PaCa-2 cells
# Source text: as §1
# [10] = AD alone 2.5 μM, 48-hour incubation, dihydrochloride
Compound,"dissolution in the medium ([1]; concentrations used (100-1000 μM), no additional solvent)","precipitate formation in the medium ([1]; medium pH 7.4, 72 hours)","average vitality ([2]; NAB alone 1000 μM, incubated for 48 hours, hTert-HPNE, HNPC, hFSSCs, HUVEC)",solubility [3],effect on healthy pancreas cell (hTert-HPNE) [4],viability at 2.5 µM [5],"viability of AsPc-1 cells [6, 10]","viability at 2.5 µM ([6]; Homo sapiens, ASPC1, 48 h, read-out: viability of AsPc-1 cells, AD alone 2.5 μM, 48-hour incubation)","viability of Psn-1 cells [7, 10]","viability at 2.5 µM ([7]; Homo sapiens, PSN1, 48 h, read-out: viability of Psn-1 cells, AD alone 2.5 μM, 48-hour incubation)","effect on healthy cells ([2]; AD alone 2.5 μM, 48-hour incubation, hTert-HPNE and HNPC, dihydrochloride)",effect on healthy intervertebral disc cells (HNPC) [8],viability at 2.5 µM [9]
sodium pentaborate pentahydrate [NAB],dissolved instantly,did not form sodium pentaborate pentahydrate precipitate,70%,,,,,,,,,,
"CCCCC(CC)CNC(=N)NC(=N)NCCCCCCNC(=N)NC(=N)NCC(CC)CCCC (stereo not shown) [AD, alexidine dihydrochloride]",,,,≥ 10000 µg/mL,not affected,50%,58.3%,58%,51.6%,45%,did not harm the healthy cells; also recorded: do not kill the healthy cells,not affected,53%
